From ChEMBL document CHEMBL2151037, “Synthesis of novel 1H-1,2,3-triazole tethered C-5 substituted uracil-isatin conjugates and their cytotoxic evaluation” (Eur J Med Chem, 2012)

What was measured:
Type in all cases: functional, cell-based
DU-145 = experiment: Antiproliferative activity against human DU145 cells after 24 hrs by MTT assay; details: DU-145, 24 h
MCF7 = experiment: Antiproliferative activity against human MCF7 cells after 24 hrs by MTT assay; details: MCF7, 24 h
HeLa = experiment: Antiproliferative activity against human HeLa cells after 24 hrs by MTT assay

Structure (SMILES) | IC50 (DU-145) [µM] | IC50 (MCF7) [µM] | IC50 (HeLa) [µM]
O=C1C(=O)N(CCn2cc(Cn3ccc(=O)n(Cc4cn(CCN5C(=O)C(=O)c6ccccc65)nn4)c3=O)nn2)c2ccccc21 | 57.8 | 45.5 | > 100
O=C1C(=O)N(CCn2cc(Cn3ccc(=O)n(Cc4cn(CCN5C(=O)C(=O)c6cc(F)ccc65)nn4)c3=O)nn2)c2ccc(F)cc21 | > 100 | 43.1 | > 100
O=C1C(=O)N(CCn2cc(Cn3ccc(=O)n(Cc4cn(CCN5C(=O)C(=O)c6cc(Cl)ccc65)nn4)c3=O)nn2)c2ccc(Cl)cc21 | 42.8 | > 100 | > 100
Cc1ccc2c(c1)C(=O)C(=O)N2CCn1cc(Cn2ccc(=O)n(Cc3cn(CCN4C(=O)C(=O)c5cc(C)ccc54)nn3)c2=O)nn1 | 38.2 | 51.1 | 52.6
O=C1C(=O)N(CCn2cc(Cn3cc(F)c(=O)n(Cc4cn(CCN5C(=O)C(=O)c6ccccc65)nn4)c3=O)nn2)c2ccccc21 | 28.6 | > 100 | > 100
O=C1C(=O)N(CCn2cc(Cn3cc(F)c(=O)n(Cc4cn(CCN5C(=O)C(=O)c6cc(Cl)ccc65)nn4)c3=O)nn2)c2ccc(Cl)cc21 | > 100 | 63.3 | > 100
O=C1C(=O)N(CCn2cc(Cn3cc(Cl)c(=O)n(Cc4cn(CCN5C(=O)C(=O)c6ccccc65)nn4)c3=O)nn2)c2ccccc21 | 18.2 | > 100 | > 100
O=C1C(=O)N(CCn2cc(Cn3cc(Cl)c(=O)n(Cc4cn(CCN5C(=O)C(=O)c6cc(Cl)ccc65)nn4)c3=O)nn2)c2ccc(Cl)cc21 | > 100 | 38.2 | 65.7
O=C1C(=O)N(CCCn2cc(Cn3ccc(=O)n(Cc4cn(CCCN5C(=O)C(=O)c6ccccc65)nn4)c3=O)nn2)c2ccccc21 | > 100 | 56.4 | 50.7
O=C1C(=O)N(CCCn2cc(Cn3ccc(=O)n(Cc4cn(CCCN5C(=O)C(=O)c6cc(F)ccc65)nn4)c3=O)nn2)c2ccc(F)cc21 | 66.2 | 98.7 | 52.4
O=C1C(=O)N(CCCn2cc(Cn3ccc(=O)n(Cc4cn(CCCN5C(=O)C(=O)c6cc(Cl)ccc65)nn4)c3=O)nn2)c2ccc(Cl)cc21 | 13.9 | > 100 | 33.1
Cc1ccc2c(c1)C(=O)C(=O)N2CCCn1cc(Cn2ccc(=O)n(Cc3cn(CCCN4C(=O)C(=O)c5cc(C)ccc54)nn3)c2=O)nn1 | 63.7 | > 100 | > 100
